# Where “and” joins values, the source holds several entries; their conditions need not be identical. Identical values can stand only once.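 Tested at 5 concentrations; 48 h exposure; 96-well plates; endpoints linearly interpolated, else capped at highest concentration. At the GI50, growth is halved. The concentration for full growth arrest is given as TGI.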
# Legend:
# Experiment in all cases: NCI tumour cell line growth inhibition, 48 h
# LOX IMVI melanoma = test system: LOX IMVI melanoma
# HT29 colon = test system: HT29 colon
# CAKI-1 renal = test system: CAKI-1 renal
# HOP-62 NSCLC = test system: HOP-62 NSCLC
# NCI-H522 lung = test system: NCI-H522 lung
# SN12C renal = test system: SN12C renal
# HL-60(TB) leukemia = test system: HL-60(TB) leukemia
# IGROV1 ovarian = test system: IGROV1 ovarian
# OVCAR-8 ovarian = test system: OVCAR-8 ovarian
# RPMI-8226 leukemia = test system: RPMI-8226 leukemia
# DMS 273 small cell lung = test system: DMS 273 small cell lung
# 786-0 renal = test system: 786-0 renal
# SF-268 CNS = test system: SF-268 CNS
# SK-MEL-5 melanoma = test system: SK-MEL-5 melanoma
# ACHN renal = test system: ACHN renal
# HCT-116 colon = test system: HCT-116 colon
# SK-MEL-28 melanoma = test system: SK-MEL-28 melanoma
# XF 498 CNS = test system: XF 498 CNS
# NCI-H460 lung = test system: NCI-H460 lung
# SK-OV-3 ovarian = test system: SK-OV-3 ovarian
# SK-MEL-2 melanoma = test system: SK-MEL-2 melanoma
# NCI-H23 lung = test system: NCI-H23 lung
# CCRF-CEM leukemia = test system: CCRF-CEM leukemia
# UACC-62 melanoma = test system: UACC-62 melanoma
# SNB-75 CNS = test system: SNB-75 CNS
# SNB-19 CNS = test system: SNB-19 CNS
# KM20L2 colon = test system: KM20L2 colon
# HCT-15 colon = test system: HCT-15 colon
# A498 renal = test system: A498 renal
# M14 melanoma = test system: M14 melanoma
# SNB-78 CNS = test system: SNB-78 CNS
# EKVX NSCLC = test system: EKVX NSCLC
# TK-10 renal = test system: TK-10 renal
# UO-31 renal = test system: UO-31 renal
# LXFL 529 NSCLC = test system: LXFL 529 NSCLC
# OVCAR-4 ovarian = test system: OVCAR-4 ovarian
# RXF 393 renal = test system: RXF 393 renal
# UACC-257 melanoma = test system: UACC-257 melanoma
# SW-620 colon = test system: SW-620 colon
# MOLT-4 leukemia = test system: MOLT-4 leukemia
# SR leukemia = test system: SR leukemia
# NCI-H226 lung = test system: NCI-H226 lung
# COLO 205 colon = test system: COLO 205 colon
# SF-295 CNS = test system: SF-295 CNS
# K-562 leukemia = test system: K-562 leukemia
# SF-539 CNS = test system: SF-539 CNS
# U251 CNS = test system: U251 CNS
# HOP-92 NSCLC = test system: HOP-92 NSCLC
# OVCAR-3 ovarian = test system: OVCAR-3 ovarian
# KM12 colon = test system: KM12 colon
# OVCAR-5 ovarian = test system: OVCAR-5 ovarian
# A549 NSCLC = test system: A549 NSCLC
# M19-MEL melanoma = test system: M19-MEL melanoma
# DMS 114 small cell lung = test system: DMS 114 small cell lung
# MALME-3M melanoma = test system: MALME-3M melanoma
# DLD-1 colon = test system: DLD-1 colon
# HCC-2998 colon = test system: HCC-2998 colon
smiles,measurement,setting,value
CN(C)C(=O)Nc1c([N+](=O)[O-])cc(C(F)(F)F)cc1[N+](=O)[O-],TGI,LOX IMVI melanoma,> 100 µM
same,TGI,HT29 colon,> 100000 nM
same,TGI,CAKI-1 renal,> 100 µM
same,TGI,HOP-62 NSCLC,> 100 µM
same,TGI,NCI-H522 lung,77.5 µM
same,TGI,SN12C renal,> 100 µM
same,TGI,HL-60(TB) leukemia,48 µM
same,TGI,IGROV1 ovarian,> 100 µM
same,TGI,OVCAR-8 ovarian,> 100 µM
same,TGI,RPMI-8226 leukemia,> 100 µM
same,TGI,DMS 273 small cell lung,> 100 µM
same,TGI,786-0 renal,> 100 µM
same,TGI,SF-268 CNS,> 100 µM
same,TGI,SK-MEL-5 melanoma,> 100 µM
same,TGI,ACHN renal,> 100 µM
same,TGI,HCT-116 colon,> 100000 nM
same,TGI,SK-MEL-28 melanoma,> 100 µM
same,TGI,XF 498 CNS,80.8 µM
same,TGI,NCI-H460 lung,> 100 µM
same,TGI,SK-OV-3 ovarian,> 100000 nM
same,TGI,SK-MEL-2 melanoma,> 100 µM
same,TGI,NCI-H23 lung,> 100 µM
same,TGI,CCRF-CEM leukemia,> 100 µM
same,TGI,UACC-62 melanoma,> 100 µM
same,TGI,SNB-75 CNS,> 100 µM
same,TGI,SNB-19 CNS,> 100 µM
same,TGI,KM20L2 colon,59.3 µM
same,TGI,HCT-15 colon,> 100 µM
same,TGI,A498 renal,> 100000 nM
same,TGI,M14 melanoma,> 100 µM
same,TGI,SNB-78 CNS,> 100 µM
same,TGI,EKVX NSCLC,> 100 µM
same,TGI,TK-10 renal,> 100 µM
same,TGI,UO-31 renal,> 100 µM
same,TGI,LXFL 529 NSCLC,> 100 µM
same,TGI,OVCAR-4 ovarian,> 100 µM
same,TGI,RXF 393 renal,> 100 µM
same,TGI,UACC-257 melanoma,84.3 µM
same,TGI,SW-620 colon,> 100 µM
same,TGI,MOLT-4 leukemia,> 100 µM
same,TGI,SR leukemia,> 100 µM
same,TGI,NCI-H226 lung,> 100 µM
same,TGI,COLO 205 colon,69.3 µM
same,TGI,SF-295 CNS,> 100 µM
same,TGI,K-562 leukemia,> 100 µM
same,TGI,SF-539 CNS,> 100 µM
same,TGI,U251 CNS,> 100 µM
same,TGI,HOP-92 NSCLC,> 100 µM
same,TGI,OVCAR-3 ovarian,53.7 µM
same,TGI,KM12 colon,> 100 µM
same,TGI,OVCAR-5 ovarian,> 100 µM
same,TGI,A549 NSCLC,> 100 µM
CC[N+](CC)(CC)Cc1cc2ccccc2n1C(=O)OC,TGI,HT29 colon,> 100000 nM
same,TGI,CAKI-1 renal,> 100 µM
same,TGI,HOP-62 NSCLC,> 100 µM
same,TGI,NCI-H522 lung,> 100 µM
same,TGI,HL-60(TB) leukemia,> 100 µM
same,TGI,IGROV1 ovarian,> 100 µM
same,TGI,OVCAR-8 ovarian,> 100 µM
same,TGI,RPMI-8226 leukemia,> 100 µM
same,TGI,DMS 273 small cell lung,> 100 µM
same,TGI,786-0 renal,> 100 µM
same,TGI,M19-MEL melanoma,> 100 µM
same,TGI,SF-268 CNS,> 100 µM
same,TGI,SK-MEL-5 melanoma,> 100 µM
same,TGI,ACHN renal,> 100 µM
same,TGI,HCT-116 colon,> 100000 nM
same,TGI,SK-MEL-28 melanoma,> 100 µM
same,TGI,XF 498 CNS,> 100 µM
same,TGI,DMS 114 small cell lung,> 100 µM
same,TGI,MALME-3M melanoma,> 100 µM
same,TGI,NCI-H460 lung,> 100 µM
same,TGI,SK-MEL-2 melanoma,> 100 µM
same,TGI,NCI-H23 lung,> 100 µM
same,TGI,CCRF-CEM leukemia,> 100 µM
same,TGI,UACC-62 melanoma,> 100 µM
same,TGI,SNB-75 CNS,> 100 µM
same,TGI,SNB-19 CNS,> 100 µM
same,TGI,KM20L2 colon,> 100 µM
same,TGI,HCT-15 colon,> 100 µM
same,TGI,M14 melanoma,> 100 µM
same,TGI,TK-10 renal,> 100 µM
same,TGI,UO-31 renal,> 100 µM
same,TGI,LXFL 529 NSCLC,> 100 µM
same,TGI,OVCAR-4 ovarian,> 100 µM
same,TGI,UACC-257 melanoma,> 100 µM
same,TGI,SW-620 colon,> 100 µM
same,TGI,MOLT-4 leukemia,> 100 µM
same,TGI,SR leukemia,> 100 µM
same,TGI,NCI-H226 lung,> 100 µM
same,TGI,COLO 205 colon,> 100 µM
same,TGI,SF-295 CNS,> 100 µM
same,TGI,DLD-1 colon,> 100 µM
same,TGI,K-562 leukemia,> 100 µM
same,TGI,SF-539 CNS,> 100 µM
same,TGI,U251 CNS,> 100 µM
same,TGI,HOP-92 NSCLC,> 100 µM
same,TGI,OVCAR-3 ovarian,> 100 µM
same,TGI,HCC-2998 colon,> 100000 nM
same,TGI,KM12 colon,> 100 µM
same,TGI,OVCAR-5 ovarian,> 100 µM
same,TGI,A549 NSCLC,> 100 µM
CCCCCC(=O)N[C@H]1CCc2cc(OC)c(OC)c(OC)c2-c2ccc(SC)c(=O)cc21,TGI,HT29 colon,75.5 nM and 131 nM
same,TGI,CAKI-1 renal,> 100 µM
same,TGI,HOP-62 NSCLC,49.7 µM
same,TGI,SN12C renal,19 µM
same,TGI,786-0 renal,11.6 µM
same,TGI,M19-MEL melanoma,50.7 µM
same,TGI,SF-268 CNS,24.1 µM
same,TGI,SK-MEL-5 melanoma,0.0484 µM
same,TGI,ACHN renal,36 µM
same,TGI,HCT-116 colon,91.3 nM and 13.6 nM
same,GI50,SK-MEL-28 melanoma,25.1 µM
same,TGI,SK-MEL-28 melanoma,> 100 µM
same,TGI,XF 498 CNS,6.04 µM
same,TGI,SK-OV-3 ovarian,81.1 nM
same,TGI,CCRF-CEM leukemia,34.8 µM
same,TGI,UACC-62 melanoma,29.3 µM
same,TGI,KM20L2 colon,0.0354 µM
same,TGI,HCT-15 colon,0.0646 µM
same,TGI,A498 renal,44.9 nM
same,TGI,SNB-78 CNS,> 100 µM
same,TGI,EKVX NSCLC,> 100 µM
same,TGI,TK-10 renal,32.9 µM
same,TGI,LXFL 529 NSCLC,17.3 µM
same,TGI,OVCAR-4 ovarian,> 100 µM
same,TGI,UACC-257 melanoma,33.4 µM
same,TGI,SW-620 colon,> 100 µM
same,TGI,MOLT-4 leukemia,> 100 µM
same,TGI,COLO 205 colon,0.0285 µM
same,TGI,DLD-1 colon,> 100 µM
same,TGI,K-562 leukemia,11.2 µM
same,TGI,SF-539 CNS,0.0374 µM
same,TGI,HOP-92 NSCLC,1.17 µM
same,TGI,OVCAR-3 ovarian,0.0354 µM
same,TGI,HCC-2998 colon,54.9 nM
same,TGI,OVCAR-5 ovarian,> 100 µM
same,TGI,A549 NSCLC,> 100 µM

# — PubChem BioAssay (NCI)
